System: 422866-222-R5-J1-PDC complex spheroid viability
Assay: Anticancer human tumor 422866-222-R5-J1-PDC patient-derived pancreatic adenocarcinoma cell line growth inhibition [POLQ]
Conditions: for IC50: curve of first compound; for viability, T/C: stronger effect = lower value
How it was run: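 Patient-derived tumour cells were co-cultured with HUVEC and mesenchymal stem cells as multicellular spheroids at 37 °C. They were treated with POLQ inhibitors (novobiocin, ART-558, RP6685) alone or combined with other agents. Top concentrations were at or near clinical Cmax (otherwise 10 microM; SN-38 at 1 microM), decreasing in half-log steps.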

[1] = second compound 0.0316 µM, first compound 0.0316 µM
[2] = second compound 0.0316 µM, first compound 0.1 µM
[3] = second compound 0.0316 µM, first compound 0.316 µM
[4] = second compound 0.0316 µM, first compound 1 µM
[5] = second compound 0.0316 µM, first compound 3.16 µM
[6] = second compound 0.0316 µM, first compound 10 µM
[7] = second compound 0.1 µM, first compound 0.0316 µM
[8] = second compound 0.1 µM, first compound 0.1 µM
[9] = second compound 0.1 µM, first compound 0.316 µM
[10] = second compound 0.1 µM, first compound 1 µM
[11] = second compound 0.1 µM, first compound 3.16 µM
[12] = second compound 0.1 µM, first compound 10 µM
[13] = second compound 0.316 µM, first compound 0.0316 µM
[14] = second compound 0.316 µM, first compound 0.1 µM
[15] = second compound 0.316 µM, first compound 0.316 µM
[16] = second compound 0.316 µM, first compound 1 µM
[17] = second compound 0.316 µM, first compound 3.16 µM
[18] = second compound 0.316 µM, first compound 10 µM
[19] = second compound 1 µM, first compound 0.0316 µM
[20] = second compound 1 µM, first compound 0.1 µM
[21] = second compound 1 µM, first compound 0.316 µM
[22] = second compound 1 µM, first compound 1 µM
[23] = second compound 1 µM, first compound 3.16 µM
[24] = second compound 1 µM, first compound 10 µM
[25] = second compound 3.16 µM, first compound 0.0316 µM
[26] = second compound 3.16 µM, first compound 0.1 µM
[27] = second compound 3.16 µM, first compound 0.316 µM
[28] = second compound 3.16 µM, first compound 1 µM
[29] = second compound 3.16 µM, first compound 3.16 µM
[30] = second compound 3.16 µM, first compound 10 µM
[31] = second compound 10 µM, first compound 0.0316 µM
[32] = second compound 10 µM, first compound 0.1 µM
[33] = second compound 10 µM, first compound 0.316 µM
[34] = second compound 10 µM, first compound 1 µM
[35] = second compound 10 µM, first compound 3.16 µM
[36] = second compound 10 µM, first compound 10 µM
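Also: spheroids exposed to compounds for one week before readout.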
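For viability, T/C in this document: percent of DMSO vehicle wells luminescence so 100% = untreated viability.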

`COc1cc2cc(C(=O)CCC(=O)O)sc2cc1OC` + Nc1ccc(C#CCN(C(=O)Cc2ncc(C(F)(F)F)cc2C(F)(F)F)c2ccc(F)cc2)nn1 was tested, and the IC50 (second compound 0.0316 µM) was over 10 µM, the IC50 (second compound 0.1 µM) was over 10 µM and the IC50 (second compound 0.316 µM) was over 10 µM. The IC50 (second compound 1 µM) was over 10 µM, the IC50 (second compound 3.16 µM) was over 10 µM and the IC50 (second compound 10 µM) was over 10 µM. The viability, T/C [1] was 84%, the viability, T/C [2] was 97.2% and the viability, T/C [3] was 94.5%. For the same compound, the viability, T/C [4] was 115%, the viability, T/C [5] was 81.2% and the viability, T/C [6] was 89.1%. For the same compound, the viability, T/C [7] was 87.3%, the viability, T/C [8] was 89.9% and the viability, T/C [9] was 87.5%. For the same compound, the viability, T/C [10] was 95.3%, the viability, T/C [11] was 84% and the viability, T/C [12] was 103%. The viability, T/C [13] was 112%, the viability, T/C [14] was 104% and the viability, T/C [15] was 86.4%. It also gave a viability, T/C [16] of 90.8%, a viability, T/C [17] of 86.2% and a viability, T/C [18] of 109%. For the same compound, the viability, T/C [19] was 99.6%, the viability, T/C [20] was 87.1% and the viability, T/C [21] was 86.9%. For the same compound, the viability, T/C [22] was 84.5%, the viability, T/C [23] was 94.2% and the viability, T/C [24] was 136%. The viability, T/C [25] was 108%, the viability, T/C [26] was 98.6% and the viability, T/C [27] was 95%. It also gave a viability, T/C [28] of 94.9%, a viability, T/C [29] of 92.2% and a viability, T/C [30] of 111%. For the same compound, the viability, T/C [31] was 98%, the viability, T/C [32] was 91.4% and the viability, T/C [33] was 93.5%. The viability, T/C [34] was 89.9%, the viability, T/C [35] was 100% and the viability, T/C [36] was 104%.
In the case of `CNCc1ccc(-c2[nH]c3cc(F)cc4c3c2CCNC4=O)cc1` + Nc1ccc(C#CCN(C(=O)Cc2ncc(C(F)(F)F)cc2C(F)(F)F)c2ccc(F)cc2)nn1, the IC50 (second compound 0.0316 µM) is reported as over 10 µM, the IC50 (second compound 0.1 µM) is reported as over 10 µM and the IC50 (second compound 0.316 µM) is reported as over 10 µM. For the same compound, the IC50 (second compound 1 µM) was over 10 µM, the IC50 (second compound 3.16 µM) was over 10 µM and the IC50 (second compound 10 µM) was over 10 µM. For the same compound, the viability, T/C [1] was 78.7%, the viability, T/C [2] was 93.6% and the viability, T/C [3] was 77.7%. For the same compound, the viability, T/C [4] was 104%, the viability, T/C [5] was 78.8% and the viability, T/C [6] was 76.6%. The viability, T/C [7] was 106%, the viability, T/C [8] was 87.5% and the viability, T/C [9] was 92.4%. It also gave a viability, T/C [10] of 107%, a viability, T/C [11] of 80.6% and a viability, T/C [12] of 82.8%. It also gave a viability, T/C [13] of 87.4%, a viability, T/C [14] of 109% and a viability, T/C [15] of 97.1%. The viability, T/C [16] was 101%, the viability, T/C [17] was 72.1% and the viability, T/C [18] was 79.5%. It also gave a viability, T/C [19] of 89.4%, a viability, T/C [20] of 89.9% and a viability, T/C [21] of 93%. For the same compound, the viability, T/C [22] was 91.9%, the viability, T/C [23] was 73.5% and the viability, T/C [24] was 63%. The viability, T/C [25] was 100%, the viability, T/C [26] was 96.4% and the viability, T/C [27] was 105%. For the same compound, the viability, T/C [28] was 89.7%, the viability, T/C [29] was 87.4% and the viability, T/C [30] was 81.9%. It also gave a viability, T/C [31] of 96.1%, a viability, T/C [32] of 109% and a viability, T/C [33] of 89.8%. The viability, T/C [34] was 64.7%, the viability, T/C [35] was 79% and the viability, T/C [36] was 69%.
`CC(C)n1c(=O)n(C)c2cnc3cc(F)c(-c4ccc(OCCCN5CCCCC5)nc4)cc3c21` + Cc1cccc(N(C)C(=O)C2C(O)CCN2c2nc(C)cc(C(F)(F)F)c2C#N)c1 was tested, and the IC50 (second compound 0.0316 µM) was over 10 µM, the IC50 (second compound 0.1 µM) was over 10 µM and the IC50 (second compound 0.316 µM) was over 10 µM. For the same compound, the IC50 (second compound 1 µM) was over 10 µM, the IC50 (second compound 3.16 µM) was over 10 µM and the IC50 (second compound 10 µM) was over 10 µM. For the same compound, the viability, T/C [1] was 105%, the viability, T/C [2] was 101% and the viability, T/C [3] was 105%. For the same compound, the viability, T/C [4] was 124%, the viability, T/C [5] was 106% and the viability, T/C [6] was 64.9%. It also gave a viability, T/C [7] of 91.6%, a viability, T/C [8] of 108% and a viability, T/C [9] of 106%. The viability, T/C [10] was 115%, the viability, T/C [11] was 96.3% and the viability, T/C [12] was 60.4%. For the same compound, the viability, T/C [13] was 117%, the viability, T/C [14] was 101% and the viability, T/C [15] was 104%. For the same compound, the viability, T/C [16] was 114%, the viability, T/C [17] was 79.5% and the viability, T/C [18] was 67%. For the same compound, the viability, T/C [19] was 100%, the viability, T/C [20] was 112% and the viability, T/C [21] was 96.2%. The viability, T/C [22] was 111%, the viability, T/C [23] was 98% and the viability, T/C [24] was 59.5%. It also gave a viability, T/C [25] of 115%, a viability, T/C [26] of 115% and a viability, T/C [27] of 96.9%. For the same compound, the viability, T/C [28] was 118%, the viability, T/C [29] was 79.9% and the viability, T/C [30] was 66.9%. It also gave a viability, T/C [31] of 115%, a viability, T/C [32] of 90.5% and a viability, T/C [33] of 94.5%. It also gave a viability, T/C [34] of 90.7%, a viability, T/C [35] of 80.5% and a viability, T/C [36] of 60.3%.
In the case of `CC(C)n1c(=O)n(C)c2cnc3cc(F)c(-c4ccc(OCCCN5CCCCC5)nc4)cc3c21` + Nc1ccc(C#CCN(C(=O)Cc2ncc(C(F)(F)F)cc2C(F)(F)F)c2ccc(F)cc2)nn1, the IC50 (second compound 0.0316 µM) is reported as over 10 µM, the IC50 (second compound 0.1 µM) is reported as over 10 µM and the IC50 (second compound 0.316 µM) is reported as over 10 µM. The IC50 (second compound 1 µM) was over 10 µM, the IC50 (second compound 3.16 µM) was over 10 µM and the IC50 (second compound 10 µM) was 9.87 µM. For the same compound, the viability, T/C [1] was 116%, the viability, T/C [2] was 116% and the viability, T/C [3] was 90.3%. It also gave a viability, T/C [4] of 99.3%, a viability, T/C [5] of 90.7% and a viability, T/C [6] of 62.2%. It also gave a viability, T/C [7] of 88.6%, a viability, T/C [8] of 102% and a viability, T/C [9] of 97.5%. It also gave a viability, T/C [10] of 88.3%, a viability, T/C [11] of 82.8% and a viability, T/C [12] of 66.2%. The viability, T/C [13] was 114%, the viability, T/C [14] was 109% and the viability, T/C [15] was 95.1%. For the same compound, the viability, T/C [16] was 105%, the viability, T/C [17] was 71.8% and the viability, T/C [18] was 53.3%. The viability, T/C [19] was 107%, the viability, T/C [20] was 110% and the viability, T/C [21] was 108%. For the same compound, the viability, T/C [22] was 91.2%, the viability, T/C [23] was 85.2% and the viability, T/C [24] was 59.1%. The viability, T/C [25] was 100%, the viability, T/C [26] was 105% and the viability, T/C [27] was 114%. The viability, T/C [28] was 76.4%, the viability, T/C [29] was 71.3% and the viability, T/C [30] was 60.8%. For the same compound, the viability, T/C [31] was 96.8%, the viability, T/C [32] was 110% and the viability, T/C [33] was 87.9%. The viability, T/C [34] was 92.5%, the viability, T/C [35] was 94.4% and the viability, T/C [36] was 49.5%.

— PubChem BioAssay AID1963844 (Molecular Pharmacology Branch, DTP, NCI, 2024)
